The values that follow come from ChEMBL document CHEMBL1137391, “Synthesis and evaluation of indenoisoquinoline topoisomerase I inhibitors substituted with nitrogen heterocycles” (2006).

Some results are limits rather than exact numbers.

Holding throughout (assay type): functional
Experiment [1] has as its system HOP-62. Kind of experiment: Cytotoxicity against human HOP62 cell line.
In experiment [2] the test system is HCT-116. Kind of experiment: Cytotoxicity against human HCT116 cell line.
The subject of experiment [3] is SF-539. In words: Cytotoxicity against human SF539 cell line.
Experiment [4] relates to UACC-62. In words: Cytotoxicity against human UACC62 cell line.
Experiment [5] relates to OVCAR-3. Kind of experiment: Cytotoxicity against human OVCAR-3 cell line.
The test system of experiment [6] is SN12C. In words: Cytotoxicity against human SN12C cell line.
The subject of experiment [7] is DU-145. Kind of experiment: Cytotoxicity against human DU145 cell line.
In experiment [8] the test system is MDA-MB-435. In words: Cytotoxicity against human MDA-MB-435 cell line.

Turning to `O=C1c2ccccc2-c2c1c1ccccc1c(=O)n2CCCn1ccnc1`, the GI50 turned out to be 2690 nM in experiment [1]; 1410 nM in experiment [2]; 2340 nM in experiment [3]; 790 nM in experiment [4]; 1660 nM in experiment [5]; 1660 nM in experiment [6]. In addition, the GI50 in experiment [7] was determined as 1410 nM.

On to `COc1cc2c3c(n(CCCN4CCSCC4)c(=O)c2cc1OC)-c1cc2c(cc1C3=O)OCO2`, for which the GI50 is 26300 nM in experiment [1]; 72400 nM in experiment [2]; 18200 nM in experiment [3]; 37200 nM in experiment [4]; 34700 nM in experiment [5]; over 100000 nM in experiment [7]. In experiment [8], this compound had a GI50 of over 100000 nM.

Turning to `COc1cc2c3c(n(CCCNCCN4CCOCC4)c(=O)c2cc1OC)-c1cc2c(cc1C3=O)OCO2`, the GI50 in experiment [1] is under 5 nM; in experiment [2] it was under 5 nM; in experiment [3] it was 550 nM; in experiment [4], 162 nM; in experiment [5], 525 nM; in experiment [6], 1480 nM. Further, the GI50 in experiment [7] came out at 603 nM; in experiment [8], 1950 nM.

Consider `COc1cc2c3c(n(CCCN4CCN(CCO)CC4)c(=O)c2cc1OC)-c1cc2c(cc1C3=O)OCO2`, for which the GI50 in experiment [1] is 9770 nM; in experiment [2], 2340 nM; in experiment [3], 1440 nM; in experiment [4], 1230 nM; in experiment [5], 15100 nM; in experiment [6] it was over 100000 nM. Besides, the results for the GI50 in experiment [7] and in experiment [8] were 275 nM and over 100000 nM, respectively.

Regarding `COc1cc2c3c(n(CCCN4CCCNCC4)c(=O)c2cc1OC)-c1cc2c(cc1C3=O)OCO2`, the GI50 was under 5 nM in experiment [1]; 214 nM in experiment [2]; 145 nM in experiment [3]; 457 nM in experiment [4]; 5010 nM in experiment [5]; 145 nM in experiment [6]. Further, the GI50 in experiment [7] is 81 nM; in experiment [8], 2630 nM.

For `COc1cc2c3c(n(CCCNC4=NCCS4)c(=O)c2cc1OC)-c1cc2c(cc1C3=O)OCO2`, the GI50 in experiment [1] is under 10 nM; in experiment [2] it was under 10 nM; in experiment [3], under 10 nM; in experiment [4], 14 nM; in experiment [5] it was 41 nM; in experiment [6], under 10 nM. The GI50 in experiment [7] and in experiment [8] was under 10 nM in each case.

In the case of `COc1cc2c3c(n(CCCN4CCN(C)CC4)c(=O)c2cc1OC)-c1cc2c(cc1C3=O)OCO2`, the GI50 in experiment [1] was found to be 18200 nM; in experiment [2] it was 1480 nM; in experiment [3] it was 17800 nM; in experiment [4], 15100 nM; in experiment [5] it was 15100 nM; in experiment [6], 11500 nM. Further, the GI50 in experiment [7] is 10700 nM; in experiment [8], over 100000 nM.

With `COc1cc2c3c(n(CCCn4ccnc4)c(=O)c2cc1OC)-c1cc2c(cc1C3=O)OCO2`, the concentration for 50% growth inhibition (GI50) is under 10 nM in experiment [1]; under 10 nM in experiment [2]; 37 nM in experiment [3]; under 10 nM in experiment [4]; 85 nM in experiment [5]; under 10 nM in experiment [6]. For the same compound, the GI50 in experiment [7] was under 10 nM; in experiment [8], 20 nM.

In the case of `COc1cc2c3c(n(CCCN4CCC(N)CC4)c(=O)c2cc1OC)-c1cc2c(cc1C3=O)OCO2`, the GI50 worked out at 427 nM in experiment [1]; 120 nM in experiment [2]; 100 nM in experiment [3]; 1290 nM in experiment [4]; 832 nM in experiment [5]; 257 nM in experiment [6]. In addition, the GI50 turned out to be 182 nM in experiment [7] and 1740 nM in experiment [8].

As for `COc1cc2c3c(n(CCCN4CCNCC4)c(=O)c2cc1OC)-c1cc2c(cc1C3=O)OCO2`, the GI50 was under 5 nM in experiment [1]; 575 nM in experiment [2]; under 5 nM in experiment [3]; 1200 nM in experiment [4]; 2040 nM in experiment [5]; 91 nM in experiment [6]. Besides, the GI50 in experiment [7] is 15 nM; in experiment [8] it was 4570 nM.

In the case of `COc1cc2c3c(n(CCCn4cccn4)c(=O)c2cc1OC)-c1cc2c(cc1C3=O)OCO2`, the GI50 in experiment [1] was 447 nM; in experiment [2], 1990 nM; in experiment [3], 398 nM; in experiment [4] it was 269 nM; in experiment [5], 56200 nM; in experiment [6] it was 316 nM. For the same compound, the GI50 amounted to 363 nM in experiment [7] and 7080 nM in experiment [8].

On to `COc1cc2c3c(n(CCCn4ccnc4)c(=O)c2cc1OC)-c1ccccc1C3=O`, for which the GI50 in experiment [1], in experiment [2], in experiment [3], in experiment [4], in experiment [5] and in experiment [6] was under 10 nM each time. In addition, the GI50 in experiment [7] was under 10 nM; in experiment [8], 14 nM.

As for `COc1cc2c3c(n(CCCN4CCCC(O)C4)c(=O)c2cc1OC)-c1cc2c(cc1C3=O)OCO2` (configuration not stated), the GI50 in experiment [1] was under 5 nM; in experiment [2] it was under 5 nM; in experiment [3], under 5 nM; in experiment [4] it was 5010 nM; in experiment [5], 5750 nM; in experiment [6], 126 nM. Besides, the GI50 was under 5 nM in experiment [7] and 977 nM in experiment [8].

Regarding `O=C1c2ccccc2-c2c1c1ccc([N+](=O)[O-])cc1c(=O)n2CCCn1ccnc1`, the GI50 was determined as 190 nM in experiment [1]; 274 nM in experiment [2]; 16 nM in experiment [3]; 12 nM in experiment [4]; 864 nM in experiment [5]; 15 nM in experiment [6]. Further, the concentration for 50% growth inhibition (GI50) came out at 17 nM in experiment [7] and 2170 nM in experiment [8].

`COc1cc2c3c(n(CCCn4cncn4)c(=O)c2cc1OC)-c1cc2c(cc1C3=O)OCO2`: the GI50 in experiment [1] is 79 nM; in experiment [2], 1910 nM; in experiment [3], 288 nM; in experiment [4] it was under 10 nM; in experiment [5], 61700 nM; in experiment [6], 85 nM. Besides, the GI50 in experiment [7] was 85 nM; in experiment [8], over 100000 nM.

As for `COc1cc2c3c(n(C)c(=O)c2cc1OC)-c1cc2c(cc1C3=O)OCO2`, the GI50 in experiment [1] was determined as 1300 nM; in experiment [2], 35000 nM; in experiment [4], 4200 nM; in experiment [6] it was 68000 nM; in experiment [7], 37000 nM; in experiment [8], 96000 nM.

For the compound `COc1cc2c3c(n(CCCN4CCOCC4)c(=O)c2cc1OC)-c1cc2c(cc1C3=O)OCO2` [INDOTECAN], the GI50 in experiment [1] was determined as 1780 nM; in experiment [2], 1150 nM; in experiment [3], 40 nM; in experiment [4] it was 30 nM; in experiment [5] it was 74100 nM; in experiment [6], 813 nM. In addition, the values for the GI50 in experiment [7] and in experiment [8] were 155 nM and 67600 nM, respectively.

In general, GI50 refers to the concentration giving 50% growth inhibition. A lower GI50 goes with greater sensitivity of the cells.
